Numbering of substitutions follows the chain as printed. Where two headings read alike, the source gives them in different places.
Legend:
[1] = tested on: Sprague-Dawley rats; test: Catalepsy test; assay type: in vivo, rat; conditions: sc, up to 4 h; TBPB 30-100 mg/kg
[2] = biological target: T1, rM1 Y381A (Rattus norvegicus, UniProt P08482, Y381A); conditions: ref Sur et al., 2003; cited from earlier work
T1 sequence (P08482 1-460 Y381A): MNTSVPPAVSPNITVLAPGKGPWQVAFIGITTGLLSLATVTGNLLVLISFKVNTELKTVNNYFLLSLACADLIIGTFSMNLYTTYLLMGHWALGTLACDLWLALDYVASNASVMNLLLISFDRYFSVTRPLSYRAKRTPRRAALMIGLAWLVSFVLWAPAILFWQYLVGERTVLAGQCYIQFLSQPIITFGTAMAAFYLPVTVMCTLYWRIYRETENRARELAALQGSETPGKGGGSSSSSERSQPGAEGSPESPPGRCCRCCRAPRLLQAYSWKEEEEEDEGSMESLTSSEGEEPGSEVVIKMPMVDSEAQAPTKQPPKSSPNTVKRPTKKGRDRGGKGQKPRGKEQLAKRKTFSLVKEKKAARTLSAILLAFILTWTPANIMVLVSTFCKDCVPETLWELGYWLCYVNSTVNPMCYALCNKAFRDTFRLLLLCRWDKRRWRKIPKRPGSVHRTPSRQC

[3] = biological target: T2, hM5 (Homo sapiens, UniProt P08912); test: Calcium mobilization assay, CHO cells expressing hM5; assay type: cell-based; conditions: M5, concentrations up to 10μM
T2 sequence (P08912 1-532): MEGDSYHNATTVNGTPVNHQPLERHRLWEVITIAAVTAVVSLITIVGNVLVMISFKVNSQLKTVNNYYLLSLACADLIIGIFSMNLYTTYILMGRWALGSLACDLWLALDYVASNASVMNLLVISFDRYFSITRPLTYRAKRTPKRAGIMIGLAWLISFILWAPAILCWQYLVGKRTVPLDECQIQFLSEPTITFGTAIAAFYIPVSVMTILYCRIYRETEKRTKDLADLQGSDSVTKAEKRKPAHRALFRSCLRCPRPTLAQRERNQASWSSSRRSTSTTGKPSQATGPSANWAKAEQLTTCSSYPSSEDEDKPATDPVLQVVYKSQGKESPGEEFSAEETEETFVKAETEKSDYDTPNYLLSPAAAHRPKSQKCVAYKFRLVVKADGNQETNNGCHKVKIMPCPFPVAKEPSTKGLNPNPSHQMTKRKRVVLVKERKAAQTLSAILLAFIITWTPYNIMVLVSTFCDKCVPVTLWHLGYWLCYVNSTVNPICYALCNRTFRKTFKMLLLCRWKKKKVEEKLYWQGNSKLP

[4] = biological target: T3, hM2 (Homo sapiens, UniProt P08172); test: Calcium mobilization assay, CHO cells expressing hM2-Gqi5; assay type: cell-based; conditions: M2, concentrations up to 10μM
T3 sequence (P08172 1-466): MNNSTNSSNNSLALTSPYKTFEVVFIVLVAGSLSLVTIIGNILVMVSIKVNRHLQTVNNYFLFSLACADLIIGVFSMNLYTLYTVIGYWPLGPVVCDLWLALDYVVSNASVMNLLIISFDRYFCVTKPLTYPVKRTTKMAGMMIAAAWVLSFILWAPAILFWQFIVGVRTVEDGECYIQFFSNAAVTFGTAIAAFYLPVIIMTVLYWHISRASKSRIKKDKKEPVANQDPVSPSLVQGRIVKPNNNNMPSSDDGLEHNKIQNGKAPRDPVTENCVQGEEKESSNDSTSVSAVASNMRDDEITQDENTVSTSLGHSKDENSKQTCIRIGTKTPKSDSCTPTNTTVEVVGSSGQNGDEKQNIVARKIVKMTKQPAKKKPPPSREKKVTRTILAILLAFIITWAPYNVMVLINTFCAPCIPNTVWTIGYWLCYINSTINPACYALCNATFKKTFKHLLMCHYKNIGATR

[5] = tested on: rats; test: Modified Irwin neurological test battery; assay type: in vivo, rat; conditions: 100 mg/kg
[6] = tested on: Aβ40; assay type: cell-based; conditions: conditioned media, ELISA
[7] = tested on: Sprague-Dawley rats; test: Locomotor activity when administered alone; assay type: in vivo, rat; conditions: 30-100 mg/kg sc
[8] = tested on: Sprague-Dawley rats; test: Amphetamine-induced hyperlocomotion; assay type: in vivo, rat; conditions: significant after 10, 30 and 56.6 mg/kg sc; amphetamine 1 mg/kg sc
[9] = biological target: T4, rM4 (Rattus norvegicus, UniProt P08485); test: Calcium mobilization assay, CHO-K1 cells expressing rM4-Gqi5; assay type: cell-based; conditions: M4, concentrations up to 10μM
T4 sequence (P08485 1-478): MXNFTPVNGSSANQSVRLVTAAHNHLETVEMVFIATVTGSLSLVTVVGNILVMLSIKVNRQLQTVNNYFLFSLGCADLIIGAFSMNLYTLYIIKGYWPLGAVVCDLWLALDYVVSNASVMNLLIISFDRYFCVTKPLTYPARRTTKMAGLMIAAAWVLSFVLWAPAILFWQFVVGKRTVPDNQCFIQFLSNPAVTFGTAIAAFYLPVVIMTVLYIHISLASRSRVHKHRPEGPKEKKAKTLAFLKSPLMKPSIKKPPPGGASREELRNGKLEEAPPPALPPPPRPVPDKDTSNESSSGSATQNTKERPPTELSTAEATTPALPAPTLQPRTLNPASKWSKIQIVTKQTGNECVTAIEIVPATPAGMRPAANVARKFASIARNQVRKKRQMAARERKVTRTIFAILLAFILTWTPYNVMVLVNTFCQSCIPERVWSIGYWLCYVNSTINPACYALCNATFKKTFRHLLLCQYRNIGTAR

[10] = biological target: hM3 (Homo sapiens, UniProt P20309); test: Calcium mobilization assay, CHO cells expressing hM3; assay type: cell-based; conditions: M3, concentrations up to 10μM
hM3, sequence (P20309 whole entry): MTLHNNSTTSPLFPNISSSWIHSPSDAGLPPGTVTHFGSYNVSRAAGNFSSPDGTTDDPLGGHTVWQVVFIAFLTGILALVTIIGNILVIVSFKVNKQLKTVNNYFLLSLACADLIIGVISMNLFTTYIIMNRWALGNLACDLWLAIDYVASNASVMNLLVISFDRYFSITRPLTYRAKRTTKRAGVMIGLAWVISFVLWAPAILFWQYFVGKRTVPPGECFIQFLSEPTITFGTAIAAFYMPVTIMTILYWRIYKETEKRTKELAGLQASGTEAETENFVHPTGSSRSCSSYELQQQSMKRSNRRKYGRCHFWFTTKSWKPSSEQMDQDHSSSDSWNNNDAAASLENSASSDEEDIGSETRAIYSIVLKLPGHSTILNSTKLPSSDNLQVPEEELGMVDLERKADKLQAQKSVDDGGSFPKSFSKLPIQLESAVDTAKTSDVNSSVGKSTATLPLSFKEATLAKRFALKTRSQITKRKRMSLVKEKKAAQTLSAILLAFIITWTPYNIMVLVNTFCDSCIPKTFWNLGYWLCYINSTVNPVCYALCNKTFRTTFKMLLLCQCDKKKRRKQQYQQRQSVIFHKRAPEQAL

[11] = biological target: T5, rM1 (Rattus norvegicus, UniProt P08482); conditions: atropine 1-10 nM (CCh) or 0.3-3.0 nM (TBPB)
T5 sequence (P08482 1-460): T1 sequence (P08482 1-460 Y381A) with A381Y

[12] = tested on: Fos-like immunoreactivity; test: Fos immunohistochemistry in rat forebrain; assay type: in vivo; conditions: 100 mg/kg sc, two hours after treatment
[13] = biological target: D2 receptors (Homo sapiens, UniProt P14416); test: D2 receptor affinity, NIMH Psychoactive Drug Screening Program; assay type: binding; conditions: D2, PDSP accession number 3156
D2 receptors, sequence (P14416 whole entry): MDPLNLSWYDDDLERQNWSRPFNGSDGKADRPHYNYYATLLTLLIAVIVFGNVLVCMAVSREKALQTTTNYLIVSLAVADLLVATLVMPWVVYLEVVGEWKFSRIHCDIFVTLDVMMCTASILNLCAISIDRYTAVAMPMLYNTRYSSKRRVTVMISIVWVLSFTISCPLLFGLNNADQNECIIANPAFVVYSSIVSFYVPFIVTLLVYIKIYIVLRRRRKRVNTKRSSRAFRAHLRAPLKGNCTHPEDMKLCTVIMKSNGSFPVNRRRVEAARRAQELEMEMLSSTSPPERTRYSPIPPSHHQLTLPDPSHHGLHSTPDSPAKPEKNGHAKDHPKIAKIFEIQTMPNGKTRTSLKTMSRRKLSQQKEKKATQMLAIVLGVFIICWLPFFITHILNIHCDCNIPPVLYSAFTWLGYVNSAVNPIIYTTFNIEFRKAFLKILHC

[14] = biological target: T5, rM1; conditions: wt rM1
[15] = tested on: amyloid precursor protein (APP) processing; assay type: cell-based; conditions: eight hours
[16] = tested on: Sprague-Dawley rats; conditions: ref Shannon et al., 2000; cited from earlier work

Structure (SMILES): O=C(CCCN1CCC(O)(c2ccc(Cl)cc2)CC1)c1ccc(F)cc1 [Haloperidol, haloperidol]
- catalepsy [1]: dose-and time-related increases in catalepsy

Structure (SMILES): Clc1ccc2c(c1)N=C(N1CCNCC1)c1ccccc1N2 [N-desmethylclozapine]
- activation of the M1 (Y381A) mutant [2]: fully activates

Structure (SMILES): Cc1ccccc1CN1CCC(N2CCC(n3c(=O)[nH]c4ccccc43)CC2)CC1 [TBPB]
- agonist activity [3]: no agonist activity
- agonist activity [4]: no agonist activity
- core body temperature [5]: slight decrease
- catalepsy [1]: did not induce catalepsy
- Aβ40 levels, % of the vehicle control [6]: 61%
- effect on general locomotor output when administered alone [7]: no effect
- effect on amphetamine-induced hyperlocomotion [8]: robust, dose-related inhibition
- agonist activity [9]: no agonist activity
- agonist activity [10]: no agonist activity
- interaction of the agonist with the orthosteric antagonist atropine [11]: noncompetitive
- number of Fos-like immunoreactive neurons ([12]; DStr lateral): 2.3 ± 1.3 per mm^2
- number of Fos-like immunoreactive neurons ([12]; DStr medial): 4.2 ± 1.2 per mm^2
- number of Fos-like immunoreactive neurons ([12]; NAS shell): 72.2 ± 12.6 per mm^2
- number of Fos-like immunoreactive neurons ([12]; PFC): 326.3 ± 57.1 per mm^2
- Ki [13]: 1.4 µM
- response as % of the maximal response to CCh [14]: 77.3±3.4%
- increase in shedding of APPsα compared to vehicle-treated cells ([15]; 1 μM): 58%
- production of CTFα ([15]; cell lysates): increased

Structure (SMILES): CN1CCN(C2=Nc3cc(Cl)ccc3Nc3ccccc32)CC1 [clozapine]
- catalepsy [1]: failed to produce catalepsy

Structure (SMILES): CCCCCCOc1nsnc1C1=CCCN(C)C1 [xanomeline]
- catalepsy [16]: lack of catalepsy

Reference: paper PMC2577155 (The Journal of neuroscience : the official journal of the …, 2008)
